# Laboratory results as given in US20230085307A1, “PYRIDAZINONE COMPOUND AND HERBICIDE” (NISSAN CHEMICAL CORPORATION, priority 2019, published 2023).
# Assays:
# persian speedwell [1] = assay: Test Example 4: herbicidal effect by soil treatment (Table 19, symbol R); type: in vivo, Persian speedwell (Veronica persica)
# Outline: (§1)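 Seeds were sown in sterilized diluvial soil and covered with about 1.5 cm of soil. An emulsion formulation diluted with water to a predetermined herbicide amount was sprayed evenly onto the soil surface. Plants grew in a greenhouse at 25° C. to 30° C., and the effect was scored three weeks after application using criteria from an earlier test.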
# wild oat = assay: Test Example 4: herbicidal effect by soil treatment (Table 19, symbol I); type: in vivo, wild oat (Avena fatua)
# Outline: as §1
# green foxtail = assay: Test Example 4: herbicidal effect by soil treatment (Table 19, symbol G); type: in vivo, green foxtail (Setaria viridis)
# Outline: as §1
# Japanese bulrush = assay: Test Example 2: herbicidal activity, application during weed generation under submerged conditions (Table 17, symbol B); type: in vivo, Japanese bulrush (Schoenoplectus juncoides); details: application during weed generation, submerged conditions
# Outline: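 3-wk visual-criteria score after one water-surface dose. Emulsion formulation, water-diluted to set rate; applied at 1–2 leaf stage; alluvial soil, 4 cm standing water; seeds co-sown; greenhouse 25–30° C.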
# southern crabgrass [2] = assay: Test Example 5: herbicidal effect by foliage application, plastic box (Table 20, symbol F); type: in vivo, southern crabgrass (Digitaria ciliaris); details: foliage application, three weeks after application
# Outline: (§2)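 Plants sown in sterilized diluvial soil and grown 14 days in a greenhouse at 25° C to 30° C, then sprayed on the foliage with the compound's emulsion diluted in water to a predetermined herbicide amount. Injury to weeds and crops scored three weeks after application on a visual rating scale.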
# barnyard grass = assay: Test Example 4: herbicidal effect by soil treatment (Table 19, symbol H); type: in vivo, barnyard grass (Echinochloa crus-galli)
# Outline: as §1
# velvetleaf [3] = assay: Test Example 5: herbicidal effect by foliage application, plastic box (Table 20, symbol M); type: in vivo, velvetleaf (Abutilon theophrasti); details: foliage application, three weeks after application
# Outline: as §2
# oval-leafed pondweed = assay: Test Example 1: herbicidal activity, application before weed generation under submerged conditions (Table 16, symbol C); type: in vivo, oval-leafed pondweed (Monochoria vaginalis)
# Outline: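 Submerged Wagner pots (alluvial soil, 4 cm water) sown with weed seeds and planted with 2.5-leaf rice seedlings; emulsifiable concentrate diluted in water applied to water surface on sowing day. Held in greenhouse at 25-30 °C; injury scored 0-5 by herbicidal rate after three weeks.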
# lambsquarters [4] = assay: Test Example 4: herbicidal effect by soil treatment (Table 19, symbol O); type: in vivo, lambsquarters (Chenopodium album)
# Outline: as §1
# lambsquarters [5] = assay: Test Example 5: herbicidal effect by foliage application, plastic box (Table 20, symbol O); type: in vivo, lambsquarters (Chenopodium album); details: foliage application, three weeks after application
# Outline: as §2
# persian speedwell [6] = assay: Test Example 5: herbicidal effect by foliage application, plastic box (Table 20, symbol R); type: in vivo, Persian speedwell (Veronica persica); details: foliage application, three weeks after application
# Outline: as §2
# chickweed [7] = assay: Test Example 5: herbicidal effect by foliage application, plastic box (Table 20, symbol P); type: in vivo, common chickweed (Stellaria media); details: foliage application, three weeks after application
# Outline: as §2
# velvetleaf [8] = assay: Test Example 4: herbicidal effect by soil treatment (Table 19, symbol M); type: in vivo, velvetleaf (Abutilon theophrasti)
# Outline: as §1
# southern crabgrass [9] = assay: Test Example 4: herbicidal effect by soil treatment (Table 19, symbol F); type: in vivo, southern crabgrass (Digitaria ciliaris)
# Outline: as §1
# windgrass = assay: Test Example 5: herbicidal effect by foliage application, plastic box (Table 20, symbol L); type: in vivo, windgrass (Apera spica-venti); details: foliage application, three weeks after application
# Outline: as §2
# blackgrass = assay: Test Example 4: herbicidal effect by soil treatment (Table 19, symbol J); type: in vivo, blackgrass (Alopecurus myosuroides)
# Outline: as §1
# chickweed [10] = assay: Test Example 4: herbicidal effect by soil treatment (Table 19, symbol P); type: in vivo, common chickweed (Stellaria media)
# Outline: as §1
# [11] = amount of applied herbicide 80 g/ha
# [12] = amount of applied herbicide 320 g/ha
smiles,measurement,setting,value
CCOc1ccccc1-c1sc2cc(OC)ccc2c1-c1c(O)c(C)nn(C)c1=O [3-070],"R: persian speedwell, herbicidal effect grade",persian speedwell [1]; [11],5 (Herbicidal rate of 90% or more (almost completely withered))
same,"I: wild oat, herbicidal effect grade",wild oat; [11],0 (Herbicidal rate of 5% or less (almost no effect))
same,"G: green foxtail, herbicidal effect grade",green foxtail; [11],3 (Herbicidal rate of 40% or more and less than 70%)
same,"herbicidal effect rating, B: Japanese bulrush",Japanese bulrush; AAH 80 g/ha,5 (Herbicidal rate of 90% or more (almost completely withered))
same,"F: southern crabgrass, herbicidal effect grade",southern crabgrass [2]; 80 g/ha,5 (Herbicidal rate of 90% or more (almost completely withered))
same,"H: barnyard grass, herbicidal effect grade",barnyard grass; [11],0 (Herbicidal rate of 5% or less (almost no effect))
same,"M: velvetleaf, herbicidal effect grade",velvetleaf [3]; 80 g/ha,5 (Herbicidal rate of 90% or more (almost completely withered))
same,"Herbicidal effect, C: oval-leafed pondweed",oval-leafed pondweed; [11],4 (Herbicidal rate of 70% or more and less than 90%)
same,"O: lambsquarters, herbicidal effect grade",lambsquarters [4]; [11],0 (Herbicidal rate of 5% or less (almost no effect))
same,"O: lambsquarters, herbicidal effect grade",lambsquarters [5]; 80 g/ha,5 (Herbicidal rate of 90% or more (almost completely withered))
same,"R: persian speedwell, herbicidal effect grade",persian speedwell [6]; 80 g/ha,5 (Herbicidal rate of 90% or more (almost completely withered))
same,"P: chickweed, herbicidal effect grade",chickweed [7]; 80 g/ha,5 (Herbicidal rate of 90% or more (almost completely withered))
same,"M: velvetleaf, herbicidal effect grade",velvetleaf [8]; [11],0 (Herbicidal rate of 5% or less (almost no effect))
same,"F: southern crabgrass, herbicidal effect grade",southern crabgrass [9]; [11],4 (Herbicidal rate of 70% or more and less than 90%)
same,"L: windgrass, herbicidal effect grade",windgrass; 80 g/ha,5 (Herbicidal rate of 90% or more (almost completely withered))
same,"J: blackgrass, herbicidal effect grade",blackgrass; [11],0 (Herbicidal rate of 5% or less (almost no effect))
same,"P: chickweed, herbicidal effect grade",chickweed [10]; [11],4 (Herbicidal rate of 70% or more and less than 90%)
"Cc1nn(C)c(=O)c(-c2c(-c3ccc(C#N)cc3)sc3ccccc23)c1O [Compound No. 1-045, 5-hydroxy-2,6-dimethyl-4-(2-(4-cyanophenyl)benzo[b]thiophen-3-yl)pyridazin-3(2H)-one]","herbicidal effect rating, R: persian speedwell",persian speedwell [1]; [12],5 (Herbicidal rate of 90% or more (almost completely withered))
same,"herbicidal effect rating, I: wild oat",wild oat; [12],0 (Herbicidal rate of 5% or less (almost no effect))
same,"herbicidal effect rating, G: green foxtail",green foxtail; [12],4 (Herbicidal rate of 70% or more and less than 90%)
same,"herbicidal effect rating, B: Japanese bulrush",Japanese bulrush; AAH 320 g/ha,3 (Herbicidal rate of 40% or more and less than 70%)
same,"herbicidal effect grade, F: southern crabgrass",southern crabgrass [2]; 320 g/ha,3 (Herbicidal rate of 40% or more and less than 70%)
same,"herbicidal effect rating, H: barnyard grass",barnyard grass; [12],5 (Herbicidal rate of 90% or more (almost completely withered))
same,"herbicidal effect grade, M: velvetleaf",velvetleaf [3]; 320 g/ha,5 (Herbicidal rate of 90% or more (almost completely withered))
same,Herbicidal effect on C: oval-leafed pondweed (grade 0-5),oval-leafed pondweed; 320 g/ha applied herbicide,4 (Herbicidal rate of 70% or more and less than 90%)
same,"herbicidal effect rating, O: lambsquarters",lambsquarters [4]; [12],5 (Herbicidal rate of 90% or more (almost completely withered))
same,"herbicidal effect grade, O: lambsquarters",lambsquarters [5]; 320 g/ha,5 (Herbicidal rate of 90% or more (almost completely withered))
same,"herbicidal effect grade, R: persian speedwell",persian speedwell [6]; 320 g/ha,5 (Herbicidal rate of 90% or more (almost completely withered))
same,"herbicidal effect grade, P: chickweed",chickweed [7]; 320 g/ha,5 (Herbicidal rate of 90% or more (almost completely withered))
same,"herbicidal effect rating, M: velvetleaf",velvetleaf [8]; [12],5 (Herbicidal rate of 90% or more (almost completely withered))
same,"herbicidal effect rating, F: southern crabgrass",southern crabgrass [9]; [12],4 (Herbicidal rate of 70% or more and less than 90%)
same,"herbicidal effect grade, L: windgrass",windgrass; 320 g/ha,0 (Herbicidal rate of 5% or less (almost no effect))
same,"herbicidal effect rating, J: blackgrass",blackgrass; [12],0 (Herbicidal rate of 5% or less (almost no effect))
same,"herbicidal effect rating, P: chickweed",chickweed [10]; [12],4 (Herbicidal rate of 70% or more and less than 90%)
